Structures can show the parent of a compound that is named as a salt.

In the assay the target is T1, human NaV1.8 (hNaV1.8) ion channel (Homo sapiens, UniProt Q9Y5Y9).
T1 construct: expressed in transfected cells
T1 sequence (Q9Y5Y9 whole entry): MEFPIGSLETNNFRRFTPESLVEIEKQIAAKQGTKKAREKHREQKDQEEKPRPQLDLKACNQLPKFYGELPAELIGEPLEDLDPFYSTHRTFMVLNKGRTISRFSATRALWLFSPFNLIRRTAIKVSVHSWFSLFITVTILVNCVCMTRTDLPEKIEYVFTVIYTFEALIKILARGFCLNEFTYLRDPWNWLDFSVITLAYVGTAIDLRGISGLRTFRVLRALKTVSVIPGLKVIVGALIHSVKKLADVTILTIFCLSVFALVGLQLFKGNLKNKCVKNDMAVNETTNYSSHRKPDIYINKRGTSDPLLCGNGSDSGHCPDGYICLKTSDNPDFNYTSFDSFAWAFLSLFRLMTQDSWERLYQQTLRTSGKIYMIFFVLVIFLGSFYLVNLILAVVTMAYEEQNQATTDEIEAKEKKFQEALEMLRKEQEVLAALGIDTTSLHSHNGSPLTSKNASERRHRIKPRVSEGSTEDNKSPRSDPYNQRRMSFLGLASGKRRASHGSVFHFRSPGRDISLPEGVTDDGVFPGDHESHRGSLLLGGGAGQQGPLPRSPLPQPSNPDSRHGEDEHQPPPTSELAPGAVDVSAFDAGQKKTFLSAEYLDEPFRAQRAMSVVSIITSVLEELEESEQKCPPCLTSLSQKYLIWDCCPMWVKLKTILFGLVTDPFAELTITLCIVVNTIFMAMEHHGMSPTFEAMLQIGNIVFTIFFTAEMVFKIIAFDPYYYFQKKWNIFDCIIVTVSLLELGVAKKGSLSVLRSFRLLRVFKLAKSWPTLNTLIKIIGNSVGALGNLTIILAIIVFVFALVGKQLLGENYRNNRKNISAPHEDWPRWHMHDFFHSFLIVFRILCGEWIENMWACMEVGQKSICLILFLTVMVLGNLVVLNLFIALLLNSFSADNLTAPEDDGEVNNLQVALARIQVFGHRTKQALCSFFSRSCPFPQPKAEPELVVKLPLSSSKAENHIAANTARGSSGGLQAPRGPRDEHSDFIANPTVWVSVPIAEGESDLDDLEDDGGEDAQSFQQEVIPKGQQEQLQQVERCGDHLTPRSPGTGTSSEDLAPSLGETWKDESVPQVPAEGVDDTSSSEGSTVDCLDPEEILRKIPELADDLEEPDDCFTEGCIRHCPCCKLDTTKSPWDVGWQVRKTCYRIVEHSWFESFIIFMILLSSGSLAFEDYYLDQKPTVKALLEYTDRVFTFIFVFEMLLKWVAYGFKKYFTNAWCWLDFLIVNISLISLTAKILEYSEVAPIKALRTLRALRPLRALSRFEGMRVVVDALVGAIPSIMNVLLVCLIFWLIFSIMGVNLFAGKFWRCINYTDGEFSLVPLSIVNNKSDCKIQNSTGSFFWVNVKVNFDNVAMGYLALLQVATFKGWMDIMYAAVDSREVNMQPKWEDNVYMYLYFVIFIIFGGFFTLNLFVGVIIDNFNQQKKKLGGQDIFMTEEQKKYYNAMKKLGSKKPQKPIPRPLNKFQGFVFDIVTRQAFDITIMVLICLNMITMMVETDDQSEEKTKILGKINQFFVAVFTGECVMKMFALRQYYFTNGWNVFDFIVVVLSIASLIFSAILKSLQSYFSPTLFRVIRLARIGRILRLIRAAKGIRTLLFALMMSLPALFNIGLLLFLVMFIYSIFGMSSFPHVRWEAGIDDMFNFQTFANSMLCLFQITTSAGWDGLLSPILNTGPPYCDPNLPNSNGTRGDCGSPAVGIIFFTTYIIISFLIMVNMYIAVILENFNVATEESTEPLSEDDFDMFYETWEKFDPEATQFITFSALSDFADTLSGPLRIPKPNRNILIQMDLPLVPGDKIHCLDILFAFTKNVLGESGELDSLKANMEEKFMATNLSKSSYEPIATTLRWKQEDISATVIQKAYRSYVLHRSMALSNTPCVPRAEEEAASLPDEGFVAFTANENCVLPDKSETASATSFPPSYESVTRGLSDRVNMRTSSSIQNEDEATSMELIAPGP
Put plainly: Inhibition of Human NaV1.8 stably expressed in SH-SY-5Y cells (membrane potential dye fluorescence assay). The class given is cell-based. Conditions: SH-SY-5Y cells stably expressing hNaV1.8; FLIPR membrane potential dye; 10 μM pyrethroid, 250 nM TTX; test range 100 μM-0.05 μM; read-out: hNav1.8 IC50. As for the experimental part:
Inhibition of Human NaV1.8 stably expressed in SH-SY-5Y cells
A SH-SY-5Y neuroblastoma cell line stably expressing the human NaV1.8 (hNaV1.8) ion channel was constructed. This cell line has been used to develop a medium to high throughput assay for determining the ability of test compounds to inhibit membrane depolarisation mediated via the hNaV1.8 channel.
SH-SY-5Y hNaV1.8 are grown in adherent monolayer culture using 50:50 Ham's F-12/EMEM tissue culture medium supplemented with 15% (v/v) foetal bovine serum; 2 mM L-glutamine, 1% NEAA and 600 μg·ml^−1 Geneticin sulphate. Cells are removed from the tissue culture flask using trypsin/EDTA and re-plated into black walled, clear bottom 96-well assay plates at 50,000 cells·well^−1 24 hours prior to assay.
On the day of assay the cell assay plates are washed to remove cell culture medium using a sodium free assay buffer (145 mM tetramethyl ammonium chloride; 2 mM calcium chloride; 0.8 mM magnesium chloride hexahydrate; 10 mM HEPES; 10 mM glucose; 5 mM potassium chloride, pH 7.4). Fluorescent membrane potential dye solution (FLIPR™ membrane potential dye, Molecular Devices Corporation), containing 10 μM of a pyrethroid to prevent channel inactivation and 250 nM tetrodotoxin (TTX) to reduce interference from TTX-sensitive sodium channels present in the cell line. Test compound, initially dissolved in dimethyl sulfoxide but further diluted in sodium free buffer, is added to achieve the final test concentration range of 100 μM-0.05 μM.
Cell plates are incubated for 30 minutes at room temperature to allow equilibration of dye and test compound. Plates are then transferred to a fluorescence plate reader for fluorescence measurement using an excitation wavelength of 530 nm whilst measuring fluorescence emission at 565 nm. […] Membrane depolarisation is registered by an increase in fluorescence emission at 565 nm.
The change in fluorescence seen in each test well upon the addition of sodium containing buffer is calculated relative to the baseline fluorescence for that well. This figure is then used for calculating the IC50 for each test compound.
What is called IC50 is the concentration that gives 50% inhibition. As for `Cc1cc(F)ccc1C(C)NC1CN(C(=O)Nc2cccc(C(F)(F)F)c2)C1` (stereo not shown) [Example 113, 3-[1-(4-Fluoro-2-methyl-phenyl)-ethylamino]-azetidine-1-carboxylic acid (3-trifluoromethyl-phenyl)-amide], the IC50 amounted to 2840 nM.
In the case of `CC(NC1CN(C(=O)Nc2ccc(C(F)(F)F)cc2)C1)c1ccc(C#N)cc1` (stereo not shown) [Example 126, 3-[1-(4-Cyano-phenyl)-ethylamino]-azetidine-1-carboxylic acid (4-trifluoromethyl-phenyl)-amide], the IC50 turned out to be 23700 nM.
As to `CC1CC(NC2CN(C(=O)Nc3ccc(Oc4ccccc4)cc3)C2)c2ccccc21` (stereo not shown) [Example 26, 3-(3-Methyl-indan-1-ylamino)-azetidine-1-carboxylic acid (4-phenoxy-phenyl)-amide], the IC50 is 240 nM.
As to `CC(NC1CN(C(=O)Nc2ccc(C(F)(F)F)cc2)C1)c1ccc(F)cc1` (stereo not shown) [Example 56, 3-[1-(4-Fluoro-phenyl)-ethylamino]-azetidine-1-carboxylic acid (4-trifluoromethyl-phenyl)-amide], the IC50 amounted to 3280 nM.
The result for `CC(c1ccc(F)cc1)N(C)C1CN(C(=O)Nc2ccc(Oc3ccccc3)cc2)C1` (stereo not shown) [Example 91, 3-{[1-(4-Fluoro-phenyl)-ethyl]-methyl-amino}-azetidine-1-carboxylic acid (4-phenoxy-phenyl)-amide] reads 690 nM; that for `O=C(Nc1ccc(C(F)(F)F)cc1)N1CC(NC2CCc3cc(O)ccc32)C1` (stereo not shown) [Example 33, 3-(5-Hydroxy-indan-1-ylamino)-azetidine-1-carboxylic acid (4-trifluoromethyl-phenyl)-amide], 11500 nM; that for `O=C(Nc1ccc(Oc2ccc(F)cc2)cc1)N1CC(NC2CCc3cc(F)ccc32)C1` (stereo not shown) [Example 136, 3-(5-Fluoro-indan-1-ylamino)-azetidine-1-carboxylic acid [4-(4-fluoro-phenoxy)-phenyl]-amide methanesulfonate salt], 210 nM.
On to `CN(C1CN(C(=O)Nc2ccc(Oc3ccccc3)cc2)C1)C1CCc2cc(F)ccc21` (stereo not shown) [Example 38, 3-[(5-Fluoro-indan-1-yl)-methyl-amino]-azetidine-1-carboxylic acid (4-phenoxy-phenyl)-amide], for which the IC50 is 560 nM.
With `CC(NC1CN(C(=O)Nc2ccc(Oc3ccccc3)cc2)C1)c1ccc(N2CCCCC2)cc1` (stereo not shown) [Example 120, 3-[1-(4-Piperidin-1-yl-phenyl)-ethylamino]-azetidine-1-carboxylic acid (4-phenoxy-phenyl)-amide], the IC50 turned out to be 590 nM.
`COC(=O)C(NC1CN(C(=O)Nc2ccc(Oc3ccccc3)cc2)C1)c1ccccc1` (stereo not shown) [Example 53, [1-(4-Phenoxy-phenylcarbamoyl)-azetidin-3-ylamino]-phenyl-acetic acid methyl ester]: the IC50 was 2230 nM.
Turning to `O=C(Nc1ccc(Oc2ccc(F)cc2)cc1)N1CC(NC2CCCc3ccccc32)C1` (stereo not shown) [Example 19, 3-(1,2,3,4-Tetrahydro-naphthalen-1-ylamino)-azetidine-1-carboxylic acid [4-(4-fluoro-phenoxy)-phenyl]-amide], the IC50 is 190 nM.
On to `CN(C1CN(C(=O)Nc2cccc(Oc3ccccc3)c2)C1)C1CCc2cc(F)ccc21` (stereo not shown) [Example 29, 3-[(5-Fluoro-indan-1-yl)-methyl-amino]-azetidine-1-carboxylic acid (3-phenoxy-phenyl)-amide], for which the IC50 amounted to 420 nM.
The result for `CC(c1ccccc1Cl)N(C)C1CN(C(=O)Nc2ccc(Oc3ccccc3)cc2)C1` (stereo not shown) [Example 67, 3-{[1-(2-Chloro-phenyl)-ethyl]-methyl-amino}-azetidine-1-carboxylic acid (4-phenoxy-phenyl)-amide] reads 550 nM; that for `O=C(Nc1ccc(C(F)(F)F)cc1)N1CC(NC2CCc3cc(F)ccc32)C1` (stereo not shown) [Example 22, 3-(5-Fluoro-indan-1-ylamino)-azetidine-1-carboxylic acid (4-trifluoromethyl-phenyl)-amide], 3110 nM.
As to `O=C(Nc1ccc(Oc2ccc(F)cc2)cc1)N1CC(NC2CCc3cc(Cl)ccc32)C1` (stereo not shown) [Example 18, 3-(5-Chloro-indan-1-ylamino)-azetidine-1-carboxylic acid [4-(4-fluoro-phenoxy)-phenyl]-amide], the IC50 was 620 nM.
On to `CC(c1ccc(F)cc1)N(C)C1CN(C(=O)Nc2ccc(OC(F)(F)F)cc2)C1` (stereo not shown) [Example 98, 3-{[1-(4-Fluoro-phenyl)-ethyl]-methyl-amino}-azetidine-1-carboxylic acid (4-trifluoromethoxy-phenyl)-amide], for which the IC50 is 3190 nM.
With `COc1ccc(C(C)NC2CN(C(=O)Nc3ccc(Oc4ccccc4)cc3)C2)cc1` (stereo not shown) [Example 54, 3-[1-(4-Methoxy-phenyl)-ethylamino]-azetidine-1-carboxylic acid (4-phenoxy-phenyl)-amide] the figure was 420 nM; with `O=C(Nc1ccc(Oc2ccccc2)cc1)N1CC(NC2CCc3cc(F)ccc32)C1` (stereo not shown) [Example 137, 3-(5-Fluoro-indan-1-ylamino)-azetidine-1-carboxylic acid (4-phenoxy-phenyl)-amide fumarate salt], 270 nM; with `CC(NC1CN(C(=O)Nc2ccc(Oc3ccccc3)cc2)C1)c1ccc(F)cc1` (stereo not shown) [Example 79, 3-[1-(4-Fluoro-phenyl)-ethylamino]-azetidine-1-carboxylic acid (4-phenoxy-phenyl)-amide], 760 nM.
For the compound `O=C(Nc1ccc(Oc2ccc(F)cc2)cc1)N1CC(NC2CCc3cc(F)ccc32)C1` (stereo not shown) [Example 7, 3-(5-Fluoro-indan-1-ylamino)-azetidine-1-carboxylic acid [4-(4-fluoro-phenoxy)-phenyl]-amide], the IC50 was 250 nM.
In the case of `CC1(NC2CCc3ccccc3C2)CN(C(=O)Nc2ccc(C(F)(F)F)cc2)C1` (stereo not shown) [Example 42, 3-Methyl-3-(1,2,3,4-tetrahydro-naphthalen-2-ylamino)-azetidine-1-carboxylic acid (4-trifluoromethyl-phenyl)-amide], the IC50 came out at 690 nM.
For `O=C(Nc1ccc(Oc2ccccc2)cc1)N1CC(NC2CCc3ccccc3C2)C1` (stereo not shown) [Example 34, 3-(1,2,3,4-Tetrahydro-naphthalen-2-ylamino)-azetidine-1-carboxylic acid (4-phenoxy-phenyl)-amide], the IC50 worked out at 100 nM.
Turning to `O=C(Cc1ccc(Oc2ccc(F)cc2)cc1)N1CC(NC2Cc3ccccc3C2)C1` [Example 49, 2-[4-(4-Fluoro-phenoxy)-phenyl]-1-[3-(indan-2-ylamino)-azetidin-1-yl]-ethanone], the IC50 came to 430 nM.
The result for `O=C(Cc1ccc(Oc2ccccc2)cc1)N1CC(NC2Cc3ccccc3C2)C1` [Example 45, 1-[3-(Indan-2-ylamino)-azetidin-1-yl]-2-(4-phenoxy-phenyl)-ethanone] reads 650 nM.
With `Cc1cc(F)ccc1C(C)NC1CN(C(=O)Nc2cccc(Oc3ccccc3)c2)C1` (stereo not shown) [Example 112, 3-[1-(4-Fluoro-2-methyl-phenyl)-ethylamino]-azetidine-1-carboxylic acid (3-phenoxy-phenyl)-amide], the IC50 was found to be 660 nM.
Regarding `CC1(NC2CCc3cc(F)ccc32)CN(C(=O)Nc2ccc(Oc3ccc(F)cc3)cc2)C1` (stereo not shown) [Example 41, 3-(5-Fluoro-indan-1-ylamino)-3-methyl-azetidine-1-carboxylic acid [4-(4-fluoro-phenoxy)-phenyl]-amide], the IC50 came to 560 nM.
With `O=C(Nc1ccc(Oc2ccc(F)cc2)c(F)c1)N1CC(NC2CCc3cc(Cl)ccc32)C1` (stereo not shown) [Example 15, 3-(5-Chloro-indan-1-ylamino)-azetidine-1-carboxylic acid [3-fluoro-4-(4-fluoro-phenoxy)-phenyl]-amide], the IC50 amounted to 650 nM.
On to `O=C(Nc1ccc(Oc2ccc(F)cc2)cc1)N1CC(NCc2c(F)cccc2F)C1` [Example 129, 3-(2,6-Difluoro-benzylamino)-azetidine-1-carboxylic acid [4-(4-fluoro-phenoxy)-phenyl]-amide], for which the IC50 is 1490 nM.
With `Cc1cccc(C(C)NC2CN(C(=O)Nc3ccc(Oc4ccccc4)cc3)C2)c1` (stereo not shown) [Example 118, 3-(1-m-Tolyl-ethylamino)-azetidine-1-carboxylic acid (4-phenoxy-phenyl)-amide] the figure was 430 nM; with `CCCCOc1ccc(NC(=O)N2CC(N(C)C(C)c3ccccc3C)C2)cc1` (stereo not shown) [Example 89, 3-[Methyl-(1-o-tolyl-ethyl)-amino]-azetidine-1-carboxylic acid (4-butoxy-phenyl)-amide], 580 nM.
The result for `Cc1cc(F)ccc1C(C)NC1CN(C(=O)Nc2ccc(C(F)(F)F)cc2)C1` (stereo not shown) [Example 114, 3-[1-(4-Fluoro-2-methyl-phenyl)-ethylamino]-azetidine-1-carboxylic acid (4-trifluoromethyl-phenyl)-amide] reads 2300 nM.

For the origin of these results see patent US20100105651A1, “ANTAGONISTS OF SNS SODIUM CHANNELS” (priority 2005, published 2010).
